Data: PMC10706475 (International Journal of Molecular Sciences, 2023)
Several values for one entry are separate records, joined by “and”; a condition that tells them apart may be missing. Equal entries are not always repeated. Where two headings read alike, the source gives them in different places.

What was measured:
[1] = tested on: tumor necrosis factor-alpha (TNF-α)
NeuN = format: in vivo, mice
nitric oxide (NO) = format: in vivo, mice
[2] = in vivo activity (i.p.), test not specified; conditions: 100 and 300 mg/kg (i.p.); test not named
Experimental: Sodium metavanadate (NaO3V) (Sigma, St. Louis, MO, USA) was utilized in this study. Novel NMDA-Receptor antagonist, ZA-II-05, is a bicyclic aryl cyclohexylamine, designed and synthesized in our lab, fully active at 100 and 300 mg/kg (i.p.). Several tests established the safety of the compound at dosages envisioned in this study.

total thiol (PT) = format: in vivo, mice
[3] = biological target: T1, Serotonin Transporter (SERT) (Homo sapiens, UniProt P31645); test: radioligand binding, Serotonin Transporter; conditions: [3H] Citalopram, cloned human transporter; read-out: SERT binding affinity (Ki)
T1 construct: expressed in transfected cells

[4] = tested on: organotypic rat hippocampal slices; format: cell-based
GFAP = tested on: GFAP; set-up: species or system mice; conditions: mouse, in vivo
Sigma1 = biological target: T2, Sigma1 (Rattus norvegicus, UniProt Q9R0C9); test: radioligand binding, Sigma1; conditions: [3H] Pentazocine (+), rat brain; read-out: Sigma 1 binding affinity (Ki)
T2 construct: Sigma1; Pentazocine (+); Rat; Brain; from tissue; host or cells: rat brain

Dopamine 1 (D1) = biological target: T3, Dopamine 1 (D1) (Homo sapiens, UniProt P21728); test: radioligand binding, Dopamine 1 (D1); conditions: [3H] SCH23390, cloned human receptor; read-out: D1 binding affinity (Ki)
T3 construct: expressed in transfected cells

µ-opioid receptors (MOR) = biological target: T4, µ-opioid receptors (MOR) (Homo sapiens, UniProt P35372); test: radioligand binding, µ-opioid receptor; conditions: read-out: μ-Opiod Receptor Ki
T4 construct: expressed in transfected cells

[5] = biological target: T5, Dopamine Transporter (DAT) (Homo sapiens, UniProt Q01959); test: radioligand binding, Dopamine Transporter; conditions: [3H] WIN35428, cloned human transporter
T5 construct: expressed in transfected cells

5-HT2A = biological target: T6, 5-HT2A (Homo sapiens, UniProt P28223); test: radioligand binding, 5-HT2A; conditions: [3H] Ketanserin, cloned human receptor; read-out: 5HT2A binding affinity (Ki)
T6 construct: expressed in transfected cells

GluN1/GluN2A = GluN1/GluN2A (Rattus norvegicus, UniProt P35439+Q00959); test: [3H] MK801 binding assay, transfected HEK293 cells, GluN1/GluN2A
H2O2 = tested on: H2O2; set-up: species or system mice; conditions: mouse, in vivo
Sigma2 = biological target: T7, Sigma2 (Rattus norvegicus, UniProt Q5U3Y7); test: radioligand binding, Sigma2
T7 construct: Sigma2; DTG; Rat; PC12; endogenous in cells; host or cells: PC12

IBA1 = format: in vivo, mice; conditions: ZA-II-05 treated groups vs […] group
[6] = locomotion and motor coordination; format: in vivo, mice; conditions: treatment with ZA-II-05 in vanadium-induced neurotoxicity
[7] = tested on: dendritic density and arborizations; format: in vivo, mice; conditions: coadministration of ZA-II-05 with […], vs […]-treated group
κ-opioid receptors (KOR) = biological target: T8, κ-opioid receptors (KOR) (Rattus norvegicus, UniProt P34975); test: biochemical; format: binding; conditions: read-out: κ-Opiod Receptor Ki
T8 construct: expressed in transfected cells

[8] = tested on: Myelin Basic Protein (MBP); set-up: species or system mice; conditions: mouse, in vivo
D2 = biological target: T9, D2 (Homo sapiens, UniProt P14416); test: radioligand binding, D2; conditions: [3H] N-Methylspiperone, cloned human receptor; read-out: D2 binding affinity (Ki)
T9 construct: expressed in transfected cells

Vitamin C = format: in vivo, mice
Non-protein thiol (NPT) = format: in vivo, mice
[9] = biological target: T10, Norepinephrine Transporter (NET) (Homo sapiens, UniProt P23975); test: radioligand binding, Norepinephrine Transporter; conditions: [3H] Nisoxetine, cloned human transporter; read-out: NET binding affinity (Ki)
T10 construct: expressed in transfected cells

[10] = ZA-II-05 only 100 mg/kg i.p. every 72 h, one month, mouse brain

T8 sequence (P34975 whole entry): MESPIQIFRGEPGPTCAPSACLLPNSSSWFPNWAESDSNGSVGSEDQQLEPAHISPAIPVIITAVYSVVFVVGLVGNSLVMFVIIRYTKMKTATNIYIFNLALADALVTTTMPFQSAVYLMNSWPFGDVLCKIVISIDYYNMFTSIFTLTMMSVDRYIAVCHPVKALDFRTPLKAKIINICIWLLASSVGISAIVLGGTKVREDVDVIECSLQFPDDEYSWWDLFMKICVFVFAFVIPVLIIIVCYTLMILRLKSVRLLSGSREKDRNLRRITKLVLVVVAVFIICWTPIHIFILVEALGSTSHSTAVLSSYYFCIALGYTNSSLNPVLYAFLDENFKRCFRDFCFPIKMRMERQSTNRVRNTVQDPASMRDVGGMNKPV
T7 sequence (Q5U3Y7 whole entry): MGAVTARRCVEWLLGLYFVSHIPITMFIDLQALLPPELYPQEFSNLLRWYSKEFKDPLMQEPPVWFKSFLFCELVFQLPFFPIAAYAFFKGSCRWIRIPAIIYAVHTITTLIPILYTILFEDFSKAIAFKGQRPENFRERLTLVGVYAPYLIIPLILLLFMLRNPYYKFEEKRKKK
T6 sequence (P28223 whole entry): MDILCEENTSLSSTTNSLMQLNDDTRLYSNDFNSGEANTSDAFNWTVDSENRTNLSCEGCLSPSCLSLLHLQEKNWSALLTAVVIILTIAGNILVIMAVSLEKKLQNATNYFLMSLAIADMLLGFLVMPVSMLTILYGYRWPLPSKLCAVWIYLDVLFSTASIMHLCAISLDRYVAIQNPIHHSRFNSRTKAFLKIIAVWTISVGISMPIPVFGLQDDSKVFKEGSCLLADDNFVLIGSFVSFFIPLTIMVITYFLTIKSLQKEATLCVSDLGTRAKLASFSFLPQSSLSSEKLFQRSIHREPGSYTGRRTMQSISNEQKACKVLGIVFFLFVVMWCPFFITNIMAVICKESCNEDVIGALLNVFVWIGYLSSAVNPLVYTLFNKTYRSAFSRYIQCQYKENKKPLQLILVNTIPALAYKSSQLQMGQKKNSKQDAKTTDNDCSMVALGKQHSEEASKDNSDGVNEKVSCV
T2 sequence (Q9R0C9 whole entry): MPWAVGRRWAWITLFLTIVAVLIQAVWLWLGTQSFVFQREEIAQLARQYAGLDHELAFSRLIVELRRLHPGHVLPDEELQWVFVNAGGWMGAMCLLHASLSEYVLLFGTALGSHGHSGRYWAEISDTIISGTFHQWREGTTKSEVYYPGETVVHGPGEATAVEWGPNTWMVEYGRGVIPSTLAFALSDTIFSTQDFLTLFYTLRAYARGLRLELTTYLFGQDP
T10 sequence (P23975 whole entry): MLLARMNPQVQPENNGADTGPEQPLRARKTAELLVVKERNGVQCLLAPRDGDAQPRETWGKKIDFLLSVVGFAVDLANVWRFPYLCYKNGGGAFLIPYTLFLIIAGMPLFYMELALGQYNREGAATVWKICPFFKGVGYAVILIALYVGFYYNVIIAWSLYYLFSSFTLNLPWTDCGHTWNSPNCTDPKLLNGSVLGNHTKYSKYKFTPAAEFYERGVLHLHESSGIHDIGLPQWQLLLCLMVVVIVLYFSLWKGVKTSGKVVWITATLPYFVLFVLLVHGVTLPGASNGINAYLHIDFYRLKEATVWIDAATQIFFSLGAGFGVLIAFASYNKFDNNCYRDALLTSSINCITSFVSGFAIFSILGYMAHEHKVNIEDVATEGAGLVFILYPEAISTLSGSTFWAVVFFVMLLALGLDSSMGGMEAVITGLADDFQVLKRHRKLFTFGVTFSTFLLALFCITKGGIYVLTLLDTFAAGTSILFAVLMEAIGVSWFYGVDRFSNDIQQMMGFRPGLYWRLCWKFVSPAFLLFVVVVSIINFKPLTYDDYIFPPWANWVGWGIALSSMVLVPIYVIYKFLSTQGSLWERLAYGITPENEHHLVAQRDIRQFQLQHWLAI
T3 sequence (P21728 whole entry): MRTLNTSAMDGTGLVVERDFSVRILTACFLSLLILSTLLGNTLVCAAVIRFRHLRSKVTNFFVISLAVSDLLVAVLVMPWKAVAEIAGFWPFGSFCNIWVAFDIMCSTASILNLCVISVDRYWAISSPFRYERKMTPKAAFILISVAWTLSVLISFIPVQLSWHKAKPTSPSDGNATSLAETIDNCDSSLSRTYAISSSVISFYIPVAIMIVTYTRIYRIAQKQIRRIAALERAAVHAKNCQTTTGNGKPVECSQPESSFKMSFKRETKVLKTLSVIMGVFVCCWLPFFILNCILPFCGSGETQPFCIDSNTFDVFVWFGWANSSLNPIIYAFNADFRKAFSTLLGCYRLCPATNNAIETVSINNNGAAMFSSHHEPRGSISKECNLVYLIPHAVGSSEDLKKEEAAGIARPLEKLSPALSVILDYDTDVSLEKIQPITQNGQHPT
T4 sequence (P35372 whole entry): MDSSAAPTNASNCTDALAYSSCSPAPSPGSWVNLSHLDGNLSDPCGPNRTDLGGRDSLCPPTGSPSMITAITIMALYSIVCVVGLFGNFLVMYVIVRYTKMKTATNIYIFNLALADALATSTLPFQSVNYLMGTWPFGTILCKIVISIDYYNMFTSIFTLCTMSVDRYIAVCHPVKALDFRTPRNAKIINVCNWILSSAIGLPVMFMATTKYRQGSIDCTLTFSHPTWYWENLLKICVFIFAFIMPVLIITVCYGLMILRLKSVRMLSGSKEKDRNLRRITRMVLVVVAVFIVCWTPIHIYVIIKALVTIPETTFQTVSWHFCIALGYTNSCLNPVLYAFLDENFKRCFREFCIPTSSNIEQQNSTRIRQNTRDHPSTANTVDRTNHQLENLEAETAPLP
T9 sequence (P14416 whole entry): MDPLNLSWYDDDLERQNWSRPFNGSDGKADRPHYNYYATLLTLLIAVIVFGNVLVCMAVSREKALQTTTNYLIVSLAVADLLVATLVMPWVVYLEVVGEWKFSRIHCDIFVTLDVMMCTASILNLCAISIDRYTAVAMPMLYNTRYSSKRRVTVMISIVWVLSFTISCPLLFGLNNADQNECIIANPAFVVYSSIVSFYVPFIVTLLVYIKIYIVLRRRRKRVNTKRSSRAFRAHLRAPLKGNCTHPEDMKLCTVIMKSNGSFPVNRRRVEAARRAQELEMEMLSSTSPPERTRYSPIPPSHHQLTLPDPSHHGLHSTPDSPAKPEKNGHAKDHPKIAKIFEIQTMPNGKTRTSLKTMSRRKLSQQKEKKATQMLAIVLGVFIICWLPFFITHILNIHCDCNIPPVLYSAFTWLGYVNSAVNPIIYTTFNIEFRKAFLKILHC
T1 sequence (P31645 whole entry): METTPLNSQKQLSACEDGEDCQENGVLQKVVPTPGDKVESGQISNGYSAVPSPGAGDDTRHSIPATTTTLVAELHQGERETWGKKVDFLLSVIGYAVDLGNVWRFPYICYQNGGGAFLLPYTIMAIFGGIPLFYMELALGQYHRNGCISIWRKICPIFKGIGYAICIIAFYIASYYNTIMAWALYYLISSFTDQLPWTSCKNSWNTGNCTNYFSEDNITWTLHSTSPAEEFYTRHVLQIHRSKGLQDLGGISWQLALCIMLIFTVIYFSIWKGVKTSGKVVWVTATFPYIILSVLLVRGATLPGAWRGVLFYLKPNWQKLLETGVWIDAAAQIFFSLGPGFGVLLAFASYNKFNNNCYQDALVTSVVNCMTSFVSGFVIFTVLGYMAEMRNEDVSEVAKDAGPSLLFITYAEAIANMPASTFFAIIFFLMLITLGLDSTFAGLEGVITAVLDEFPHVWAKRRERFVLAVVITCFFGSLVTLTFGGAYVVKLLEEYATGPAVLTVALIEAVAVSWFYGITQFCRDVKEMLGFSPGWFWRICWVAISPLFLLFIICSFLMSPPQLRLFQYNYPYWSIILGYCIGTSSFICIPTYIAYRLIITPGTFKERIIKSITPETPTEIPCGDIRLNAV
T5 sequence (Q01959 whole entry): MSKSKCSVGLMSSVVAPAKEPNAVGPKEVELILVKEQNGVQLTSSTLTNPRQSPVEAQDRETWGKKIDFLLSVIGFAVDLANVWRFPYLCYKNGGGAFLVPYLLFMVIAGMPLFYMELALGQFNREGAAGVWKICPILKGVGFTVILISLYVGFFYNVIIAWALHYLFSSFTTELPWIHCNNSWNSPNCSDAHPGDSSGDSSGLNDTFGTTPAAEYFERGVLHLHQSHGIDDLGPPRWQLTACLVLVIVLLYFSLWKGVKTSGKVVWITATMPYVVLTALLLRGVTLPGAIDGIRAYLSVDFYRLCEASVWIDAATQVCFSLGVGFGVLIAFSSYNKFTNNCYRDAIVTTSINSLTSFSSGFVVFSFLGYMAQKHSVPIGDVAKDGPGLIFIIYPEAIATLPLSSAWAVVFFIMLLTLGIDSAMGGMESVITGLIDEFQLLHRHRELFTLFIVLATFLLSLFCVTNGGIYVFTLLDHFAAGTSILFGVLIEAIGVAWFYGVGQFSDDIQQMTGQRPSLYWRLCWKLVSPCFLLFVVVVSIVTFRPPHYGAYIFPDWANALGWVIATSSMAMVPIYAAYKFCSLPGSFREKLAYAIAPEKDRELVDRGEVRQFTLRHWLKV

## Fc1ccc(C2(NCCCOC3CCCCO3)CC3CCC2C3)cc1 (stereo not shown) [ZA-II-05]
[1]; ZA-II-05 only 100 mg/kg, all brain regions vs other groups
  TNF-α expression: upregulated the expression of TNF-α significantly (p < 0.05) in all the brain regions
[1]; […] + ZA-II-05-treated groups vs […] group
  cytoplasmic TNF-α expression: reduced cytoplasmic TNF-α expression compared to vanadium group
NeuN; ZA-II-05 only 100 mg/kg (ZA treatment only), CA1 and PFC
  NeuN viable cells / neuronal number: decreased viable cells in CA1 but increased neuronal number and vitality in the prefrontal cortex
NeuN; mouse, in vivo, 100 mg/kg
  NeuN cellular pathology, prefrontal cortex: significantly less cellular pathology in the prefrontal cortex compared to the vanadium-exposed groups
  NeuN, loss of apical dendrites of pyramidal cells, CA1: reversal effect relative to the vanadium-exposed group
  NeuN, neuronal degeneration of pyramidal cells, CA3: reversal effect with reduced cellular toxicity
Nitric oxide (NO); [10]
  NO: 0.34±0.03 μmole/mg protein
Nitric oxide (NO); mouse, in vivo
  NO: 0.32±0.03 μmole/mg protein
[2]
  activity in vivo: fully active
Total thiol (PT); [10]
  THIOL: 28.62±6.72 nmoles/mg/protein
Total thiol (PT); mouse, in vivo
  THIOL: 25.06±4.68 nmoles/mg/protein
[3]
  Ki: > 10 µM
[4]
  cell death in vanadium-treated hippocampal slices (propidium iodide uptake): gradual reduction in cell death with increasing concentrations
  concentration of peak protection against vanadium-induced cell death: 100 µM
GFAP
  astrocyte reactivity (GFAP): attenuation of astrocyte reactivity
Sigma1
  Ki: > 10 µM
Dopamine 1 (D1)
  Ki: > 10 µM
µ-opioid receptors (MOR)
  Ki: 3.04 µM
[5]
  Ki: 3.16 µM
5-HT2A
  Ki: > 10 µM
GluN1/GluN2A
  difference in affinity GluN1/GluN2A vs GluN1/GluN2B: No significant difference in affinity
H2O2
  H2O2: 38.89±2.67 and 46.02±0.29
Sigma2
  Ki: 0.0055 µM
IBA1
  microglial activation (IBA1): quiescence and recovery from activation
[6]
  locomotion and motor coordination: enhanced locomotion and improved motor coordination
[7]
  dendritic length and arborization (Golgi stain): successfully reversed these dendritic changes induced by vanadium neurotoxicity
κ-opioid receptors (KOR)
  Ki: 1.24 µM
[8]
  expression of myelin content (MBP): significantly higher expression of myelin content and preservation of axonal dendritic integrity in the deep cortical layers
D2
  Ki: > 10 µM
Vitamin C; [10]
  VIT. C: 0.17±0.02 nmoles/mg protein
Vitamin C; mouse, in vivo
  VIT. C: 0.20±0.04 nmoles/mg protein
Non-protein thiol (NPT); [10]
  NPT: 26.98±5.89 nmoles/mg protein
Non-protein thiol (NPT); mouse, in vivo
  NPT: 29.06±3.80 nmoles/mg protein
[9]
  Ki: > 10 µM
